In PubChem BioAssay AID2060498 (Molecular Pharmacology Branch, DTP, NCI, 2025):
pIC50: −log10 of the molar value. Each block holds one compound with its values, some of them ahead of it.

Tested on: 171881-019-R-J1-PDC tumor spheroids, viability
Experiment: Anticancer human tumor 171881-019-R-J1-PDC patient-derived invasive breast carcinoma cell line growth inhibition [GQUAD]
Conditions: spheroids with HUVEC and MSC; for pIC50: curve of first compound; for viability, T/C: stronger effect = lower value
From the text: DNA G-quadruplex Stabilizer Agents in Combinations in Complex Spheroids
A high-throughput screen of multi-cell type tumor spheroids was designed to identify active combinations of DNA G-quadruplex stabilizer agents and targeted small molecules. Complex spheroids include a stromal component modeled by human endothelial cells (HUVEC) and fibroblasts modeled by human mesenchymal stem cells (MSCs). The concentration ranges selected for each drug and investigational agent were based upon clinically achievable concentrations if the clinical Cmax of the agent was known.
Compounds. The drugs and investigational agents: pidnarulex (CX-5461; NSC782164), APTO-253 (NSC789042), BRACO-19 (NSC847499), peposertib (NSC802822), ceralasertib (NSC780249), elimusertib (NSC800525), camonsertib (NSC841442), AZD-1390 (NSC803789), olaparib (NSC753686), talazoparib (NSC767125), ART-558 (NSC835418), sotorasib (NSC818433), MRTX-1133 (NSC836407), SN-38 (NSC673596), topotecan (NSC609699), etoposide (NSC141540), doxorubicin (NSC123127), gemcitabine (NSC613327), 5-fluorouracil (NSC19893), paclitaxel (NSC125973), vemurafenib (NSC761431), panobinostat (NSC761190), R-306465 (JNJ-16241199; NSC773264), adavosertib (NSC754352), TP-3654 (NSC805149), carboplatin (NSC241240), KSQ-4279 (NSC840948), and staurosporine (NSC755774) were obtained from the National Cancer Institute (NCI) Developmental Therapeutics Program Chemical Repository (34). The FDA-approved anticancer drug set is available from the NCI Developmental Therapeutics Program. […] The stock solutions were prepared in dimethyl sulfoxide (DMSO, Sigma-Aldrich, St. Louis, MO, cat. D2650) at 800-fold the tested concentration and stored at -70 degrees C prior to their use. All drugs and investigational agents were tested over a range starting from a high concentration at or near the clinical Cmax and decreasing in half-log increments. If the clinical Cmax for an agent had not been determined, the highest concentration tested was 10 microM.
2.3 Cell Culture. All cells were maintained in an incubator at 37 degrees C and 5% CO2 with 95% humidity. The PDC lines were cultured according to standard operating procedures established by the NCI PDMR. All PDCs were thawed and cultured in Matrigel-coated flasks prepared with a working solution of 1X Ham's F-12 nutrient mix, without supplementation (Invitrogen, cat. 11765054), 100 U/mL penicillin-streptomycin (Invitrogen, cat. 15140122), and 2.5% Matrigel (Corning Inc., cat. 354248) for the first three passages. The 857933-349-R-J2-PDC line was cultured in 6C/Colon 1B media, which includes advanced DMEM/F-12 (Thermo Fisher Scientific, cat. 12634028), 10 mM HEPES (Thermo Fisher Scientific, cat. 15630080), 1X GlutaMAX supplement (Thermo Fisher Scientific, cat. 35050061), 0.1 mg/mL primocin (InvivoGen, cat. ant-pm-2), 10% defined fetal bovine serum, heat inactivated (HyClone Laboratories Inc., cat. SH30070.03HI), 50% L-WRN conditioned media (ATCC, cat. CRL-3276), 1.25 mM N-Acetyl-L-cysteine (Sigma-Aldrich, cat. A9165), 10 mM nicotinamide (Sigma-Aldrich, cat. N0636), 1X B-27 supplement (Thermo Fisher Scientific, cat. 17504044), 1X N-2 supplement (Thermo Fisher Scientific, cat. 17502048), 10 microM Y-27632 dihydrochloride (Tocris Bioscience, cat. 1254), and 50 ng/mL human EGF recombinant protein (Thermo Fisher Scientific, cat. PHG0311). The 485176-168-R4-J1-PDC line was cultured in Panc media, which includes all 6C/Colon 1B media components plus 100 ng/mL human FGF-10 (Thermo Fisher Scientific, cat. 100-26), 500 nM SB-431542 (Selleckchem, cat. S1067), and gastrin (Tocris, cat. 3006).
[…]

[1] = second compound 0.0316 µM, first compound 0.0316 µM
[2] = second compound 0.0316 µM, first compound 0.1 µM
[3] = second compound 0.0316 µM, first compound 0.316 µM
[4] = second compound 0.0316 µM, first compound 1 µM
[5] = second compound 0.0316 µM, first compound 3.16 µM
[6] = second compound 0.0316 µM, first compound 10 µM
[7] = second compound 0.1 µM, first compound 0.0316 µM
[8] = second compound 0.1 µM, first compound 0.1 µM
[9] = second compound 0.1 µM, first compound 0.316 µM
[10] = second compound 0.1 µM, first compound 1 µM
[11] = second compound 0.1 µM, first compound 3.16 µM
[12] = second compound 0.1 µM, first compound 10 µM
[13] = second compound 0.316 µM, first compound 0.0316 µM
[14] = second compound 0.316 µM, first compound 0.1 µM
[15] = second compound 0.316 µM, first compound 0.316 µM
[16] = second compound 0.316 µM, first compound 1 µM
[17] = second compound 0.316 µM, first compound 3.16 µM
[18] = second compound 0.316 µM, first compound 10 µM
[19] = second compound 1 µM, first compound 0.0316 µM
[20] = second compound 1 µM, first compound 0.1 µM
[21] = second compound 1 µM, first compound 0.316 µM
[22] = second compound 1 µM, first compound 1 µM
[23] = second compound 1 µM, first compound 3.16 µM
[24] = second compound 1 µM, first compound 10 µM
[25] = second compound 3.16 µM, first compound 0.0316 µM
[26] = second compound 3.16 µM, first compound 0.1 µM
[27] = second compound 3.16 µM, first compound 0.316 µM
[28] = second compound 3.16 µM, first compound 1 µM
[29] = second compound 3.16 µM, first compound 3.16 µM
[30] = second compound 3.16 µM, first compound 10 µM
[31] = second compound 10 µM, first compound 0.0316 µM
[32] = second compound 10 µM, first compound 0.1 µM
[33] = second compound 10 µM, first compound 0.316 µM
[34] = second compound 10 µM, first compound 1 µM
[35] = second compound 10 µM, first compound 3.16 µM
[36] = second compound 10 µM, first compound 10 µM
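Note: spheroids exposed to compounds for 7 days.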
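Throughout, for viability, T/C: 100% = DMSO vehicle control viability.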

pIC50 (second compound 0.0316 µM): < 5.00 | pIC50 (second compound 0.1 µM): < 5.00 | pIC50 (second compound 0.316 µM): < 5.00 | pIC50 (second compound 1 µM): < 5.00 | pIC50 (second compound 3.16 µM): < 5.00 | pIC50 (second compound 10 µM): < 5.00
Compound: COc1ncnc(C2CC2)c1-c1ncc2cnn(Cc3ccc(-c4nc(C(F)(F)F)cn4C(C)C)cc3)c2n1 + Cc1cnc(CNC(=O)c2c(=O)c3ccc(N4CCCN(C)CC4)nc3n3c2sc2ccccc23)cn1
viability, T/C [1]: 93.6% | viability, T/C [2]: 85.3% | viability, T/C [3]: 82.4% | viability, T/C [4]: 85.4% | viability, T/C [5]: 92% | viability, T/C [6]: 87% | viability, T/C [7]: 76.2% | viability, T/C [8]: 83% | viability, T/C [9]: 70% | viability, T/C [10]: 81.7% | viability, T/C [11]: 73.9% | viability, T/C [12]: 71.2% | viability, T/C [13]: 72.1% | viability, T/C [14]: 74.3% | viability, T/C [15]: 69.5% | viability, T/C [16]: 65.8% | viability, T/C [17]: 71.1% | viability, T/C [18]: 63.3% | viability, T/C [19]: 69% | viability, T/C [20]: 61.3% | viability, T/C [21]: 62.3% | viability, T/C [22]: 62.6% | viability, T/C [23]: 63.5% | viability, T/C [24]: 66.2% | viability, T/C [25]: 67.3% | viability, T/C [26]: 57.6% | viability, T/C [27]: 61.2% | viability, T/C [28]: 56.4% | viability, T/C [29]: 62% | viability, T/C [30]: 66.2% | viability, T/C [31]: 53.4% | viability, T/C [32]: 56.9% | viability, T/C [33]: 54.2% | viability, T/C [34]: 57.3% | viability, T/C [35]: 63.1% | viability, T/C [36]: 56.3%

Compound: COc1cccc2c1C(=O)c1c(O)c3c(c(O)c1C2=O)CC(O)(C(=O)CO)CC3OC1CC(N)C(O)C(C)O1 (centres undefined) + Cc1[nH]c2ccc(F)cc2c1-c1nc2c3cccnc3c3ncccc3c2[nH]1
pIC50 (second compound 0.0316 µM): 6.87 | pIC50 (second compound 0.1 µM): 6.83 | pIC50 (second compound 0.316 µM): 6.81 | pIC50 (second compound 1 µM): 6.93 | pIC50 (second compound 3.16 µM): > 7.50 | pIC50 (second compound 10 µM): > 7.50 | viability, T/C [1]: 89.8% | viability, T/C [2]: 51.9% | viability, T/C [3]: 38.1% | viability, T/C [4]: 16.4% | viability, T/C [5]: 0.24% | viability, T/C [6]: 0.22% | viability, T/C [7]: 85.3% | viability, T/C [8]: 55.3% | viability, T/C [9]: 37.9% | viability, T/C [10]: 16.5% | viability, T/C [11]: 0.15% | viability, T/C [12]: 0.52% | viability, T/C [13]: 82.8% | viability, T/C [14]: 56.4% | viability, T/C [15]: 38.7% | viability, T/C [16]: 13.9% | viability, T/C [17]: 0.13% | viability, T/C [18]: 0.5% | viability, T/C [19]: 76.2% | viability, T/C [20]: 47% | viability, T/C [21]: 40.3% | viability, T/C [22]: 14.7% | viability, T/C [23]: 0.3% | viability, T/C [24]: 0.77% | viability, T/C [25]: 22.2% | viability, T/C [26]: 17.1% | viability, T/C [27]: 18.2% | viability, T/C [28]: 9.24% | viability, T/C [29]: 0.43% | viability, T/C [30]: 0.81% | viability, T/C [31]: 38% | viability, T/C [32]: 38.9% | viability, T/C [33]: 23.1% | viability, T/C [34]: 16.5% | viability, T/C [35]: 0.93% | viability, T/C [36]: 0.93%
